The values that follow come from US9642367B2, “Microbicidal composition” (Dow Global Technologies LLC, priority 2013, dated 2017).

Type in all cases: cell-based
Assay [1] has as its system Escherichia coli (E. coli, ATCC #8739). Put plainly: MIC / synergy evaluation in 96 well microtiter plate, bacteria in Tryptic Soy Broth. The note with it: visual turbidity; for MIC: Escherichia coli, ATCC8739, single active acting alone, read-out: Minimum Inhibitory Concentration. From the text:
(§1) One measure of synergism is the industrially accepted method described by Kull, F. C.; Eisman, P. C.; Sylwestrowicz, H. D. and Mayer, R. L., in Applied Microbiology 9:538-541 (1961), using the ratio determined by the formula: Qa/QA+Qb/QB=Synergy Index (“SI”) wherein:
(§2) QA=concentration of compound A (first component) in ppm, acting alone, which produced an end point (MIC of Compound A).
(§3) Qa=concentration of compound A in ppm, in the mixture, which produced an end point.
(§4) QB=concentration of compound B (second component) in ppm, acting alone, which produced an end point (MIC of Compound B).
(§5) Qb=concentration of compound B in ppm, in the mixture, which produced an end point.
(§6) When the sum of Qa/QA and Qb/QB is greater than one, antagonism is indicated. […] The lower the SI, the greater the synergy shown by that particular mixture. The minimum inhibitory concentration (MIC) of a microbicide is the lowest concentration tested under a specific set of conditions that prevents the growth of added microorganisms. The microorganisms tested were Escherichia coli(E. coli, ATCC #8739), a yeast, Candida albicans (C. albicans, ATCC #10231) and mold, Aspergillus niger (A. niger, ATCC #16404).
(§7) MBIT synergy with a secondary biocide was determined by evaluating the minimum biocide or biocide blend concentration required to inhibit microbial growth. All studies were conducted using a 96 well microtiter plate format. For all studies, 200 μl of microbial growth media, containing various concentrations of MBIT alone, the secondary biocide alone, or combinations of both biocide chemistries, was added to individual wells of a microtiter plate. Specifically, Tryptic Soy Broth (TSB) was utilized for bacteria (E. coli, ATCC #8739), Yeast Malt Extract Broth (YMB) for yeast (Candida albicans, ATCC #10231) and Potato Dextrose Broth (PDB) for mold (Aspergillus niger, ATCC #16404). Test organisms, at a final concentration of 10^4 CFU/mL or 10^4 spores/mL, were applied to each well in parallel experiments to initiate the MIC evaluations. Growth medium containing no biocide was utilized as a control in each experimental setup to confirm the growth viability of each organism. Eight concentrations (2-fold dilutions) of each individual biocide were evaluated in the microbial growth inhibition studies in addition to the 64 possible combinations of these biocide concentrations. Evaluation of the individual biocide concentrations is required to achieve an inhibitory concentration end point for synergy index calculation. […] Individual wells were scored as growth or no growth based on visual organism growth turbidity.
(§8) These microorganisms are representative of natural contaminants in many consumer and industrial applications. […] (yeast and mold) or 30° C. (bacteria).

In assay [2] the test system is Aspergillus niger (A. niger, ATCC #16404). Briefly: MIC / synergy evaluation in 96 well microtiter plate, mold in Potato Dextrose Broth. The note with it: ATCC16404, single active acting alone, visual turbidity, read-out: Minimum Inhibitory Concentration.
Source text: as §1, §2, §3, §4, §5
When the sum of Qa/QA and Qb/QB is greater than one, antagonism is indicated. […] The lower the SI, the greater the synergy shown by that particular mixture. […]
MBIT synergy with a secondary biocide was determined by evaluating the minimum biocide or biocide blend concentration required to inhibit microbial growth. […] Eight concentrations (2-fold dilutions) of each individual biocide were evaluated in the microbial growth inhibition studies in addition to the 64 possible combinations of these biocide concentrations. […] Individual wells were scored as growth or no growth based on visual organism growth turbidity. […]

The test system of assay [3] is Candida albicans (C. albicans, ATCC #10231). Put plainly: MIC / synergy evaluation in 96 well microtiter plate, yeast in Yeast Malt Extract Broth. The note with it: visual turbidity; for MIC: Candida albicans, ATCC10231, single active acting alone, read-out: Minimum Inhibitory Concentration.
Source text: as §1, §2, §3, §4, §5, §6, §7, §8

Turning to `C=CCCCCCCCCC(=O)O` [Undecylenic acid, undecylenic acid], the results for the MIC in assay [1], in assay [2] and in assay [3] were 10000 µg/mL, 38 µg/mL and 7.82 µg/mL, respectively.
For `CC(O)C(=O)O` (stereo not shown) [Lactic acid, lactic acid], the MIC in assay [1] stood at 5000 µg/mL; in assay [2], 40000 µg/mL; in assay [3], 750 µg/mL.
Turning to `O=C(O)CCCCCCCC(=O)O` [Azelaic acid, azelaic acid], the MIC in assay [1] worked out at 2500 µg/mL; in assay [3], 188 µg/mL.
Regarding `Cn1sc2ccccc2c1=O` [MBIT, N-methyl-1,2-benzisothiazolin-3-one], the “Minimum Inhibitory Concentration” value in assay [1] (single active acting alone) stood at 12.50 ppm; in assay [3] (single active acting alone), 1.50 ppm.
